By fraction unbound is commonly meant free concentration divided by total concentration. Read a high fraction unbound as weak binding.

The data set in a line: clinical. To be noted: human, in vivo, po.

Compound `Nc1nc2ccc(OC(F)(F)F)cc2s1` [RILUZOLE] gave a fraction unbound of 0.04.

Source of the values: ChEMBL document CHEMBL3832083.
